# Values joined by “and” are separate entries in the source; they are usually repeats but may differ in a detail not shown here. Equal values may be shown once. Read-outs that look alike come from different tables or passages of the source.
# What was measured:
# mouse P-gp mdr1a [1] = target: T1, mouse P-gp mdr1a (Mus musculus, UniProt P21447); details: DMPC nanodiscs; for V2 (rate of ATP hydrolysis at infinite substrate concentration): footnote a = parameter reaching constraint set at >0; for K1 (substrate concentration for half-maximal stimulation of ATPase activity): footnote d = ambiguous, lack of ATPase stimulation
# murine P-gp [2] = target: T2, murine P-gp (Mus musculus, UniProt P21447); details: for displacement of BD-verapamil from P-gp (in words) / displacement of BD-vinblastine from P-gp (in words): FCS competition; for n (Hill coefficient): drug displacing BD-vinblastine from P-gp nanodiscs
# murine P-gp [3] = target: T2, murine P-gp; assay: biochemical
# [4] = FCS binding of fluorescent probes to empty nanodiscs; details: ND = not determined because of minimal binding
# mouse P-gp mdr1a [5] = target: T1, mouse P-gp mdr1a; details: E. coli lipid nanodiscs; for V1 (maximal rate of ATP hydrolysis when there is only activation): footnote b = parameter held constant
# murine P-gp [6] = target: T2, murine P-gp
# murine P-gp [7] = target: T2, murine P-gp; type: biochemical; details: inside-out murine P-gp vesicles, ATP-dependent, 117 nM Flutax-2, 37 °C
# mouse P-gp = mouse P-gp (Mus musculus, UniProt P21447); assay: ATPase assay in mouse P-gp vesicles; type: biochemical; details: concentration range studied
# [8] = ATP and Vi (1 mM ATP, 240 μM Vi), vanadate-trapped, apparent KD
# [9] = apo (control), nucleotide-free, apparent KD, high-affinity site
# T1 sequence (P21447 whole entry): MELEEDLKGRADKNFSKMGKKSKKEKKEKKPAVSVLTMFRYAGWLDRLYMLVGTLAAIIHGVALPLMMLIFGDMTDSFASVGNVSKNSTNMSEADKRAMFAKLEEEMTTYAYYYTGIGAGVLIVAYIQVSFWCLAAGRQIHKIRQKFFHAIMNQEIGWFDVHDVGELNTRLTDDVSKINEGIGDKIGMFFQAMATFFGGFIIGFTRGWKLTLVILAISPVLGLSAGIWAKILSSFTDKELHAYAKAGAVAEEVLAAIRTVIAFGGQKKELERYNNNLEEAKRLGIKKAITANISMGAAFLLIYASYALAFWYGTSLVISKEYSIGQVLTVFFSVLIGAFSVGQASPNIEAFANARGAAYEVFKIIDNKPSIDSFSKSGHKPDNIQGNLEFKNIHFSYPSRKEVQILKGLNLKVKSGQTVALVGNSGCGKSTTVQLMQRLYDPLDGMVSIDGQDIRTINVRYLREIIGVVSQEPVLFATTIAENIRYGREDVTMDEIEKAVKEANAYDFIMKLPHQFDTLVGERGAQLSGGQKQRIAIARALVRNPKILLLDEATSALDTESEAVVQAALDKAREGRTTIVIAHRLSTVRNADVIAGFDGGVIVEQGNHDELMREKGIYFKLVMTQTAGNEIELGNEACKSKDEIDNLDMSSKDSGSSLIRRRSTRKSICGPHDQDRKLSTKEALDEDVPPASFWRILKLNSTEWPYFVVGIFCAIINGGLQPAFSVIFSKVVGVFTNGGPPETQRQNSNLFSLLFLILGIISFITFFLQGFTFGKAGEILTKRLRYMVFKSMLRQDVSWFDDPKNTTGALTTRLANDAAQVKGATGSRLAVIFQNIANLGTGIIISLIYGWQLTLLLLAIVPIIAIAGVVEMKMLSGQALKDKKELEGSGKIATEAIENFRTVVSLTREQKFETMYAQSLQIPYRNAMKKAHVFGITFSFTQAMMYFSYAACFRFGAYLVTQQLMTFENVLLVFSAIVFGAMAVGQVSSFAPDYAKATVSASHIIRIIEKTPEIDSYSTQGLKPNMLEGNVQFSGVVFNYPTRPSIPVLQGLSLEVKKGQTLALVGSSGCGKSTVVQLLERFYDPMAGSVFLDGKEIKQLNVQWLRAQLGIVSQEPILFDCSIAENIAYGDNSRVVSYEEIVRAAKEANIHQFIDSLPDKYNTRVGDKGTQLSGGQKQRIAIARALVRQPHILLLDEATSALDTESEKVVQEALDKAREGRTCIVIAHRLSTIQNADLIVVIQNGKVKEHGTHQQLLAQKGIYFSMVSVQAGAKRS
# T2 sequence (P21447 whole entry): as above
# Chain of mouse P-gp (P21447 whole entry): as above
K1 (substrate concentration for half-maximal stimulation of ATPase activity) (mouse P-gp mdr1a [1]),displacement of BD-verapamil from P-gp (in words) (murine P-gp [2]),displacement of BD-vinblastine from P-gp (in words) (murine P-gp [2]),n (Hill coefficient) (murine P-gp [2]),Molecule,V2 (rate of ATP hydrolysis at infinite substrate concentration) (mouse P-gp mdr1a [1]),Kd [4],V2 (rate of ATP hydrolysis at infinite substrate concentration) (mouse P-gp mdr1a [5]),stimulation of ATPase activity (in words) (mouse P-gp mdr1a [5]),V1 (maximal rate of ATP hydrolysis when there is only activation) (mouse P-gp mdr1a [5]),"Kd (murine P-gp [6]; AMP-PNP (1 mM), apparent KD) [nM]",Kd (murine P-gp [6]; [8]) [nM],Kd (murine P-gp [6]; [9]) [nM],other results
1.3 ± 0.5 µM,did not displace,displaced,0.5 ± 0.5,CC(=O)O[C@H]1C(=O)[C@@]2(C)[C@H]([C@H](OC(=O)c3ccccc3)[C@]3(O)C[C@H](OC(=O)[C@H](O)[C@@H](NC(=O)c4ccccc4)c4ccccc4)C(C)=C1C3(C)C)[C@]1(OC(C)=O)CO[C@@H]1C[C@@H]2O [paclitaxel],48 ± 6 nmol of Pi min^−1 mg^−1,–,–,–,–,–,–,–,–
2.6 ± 1.0 µM,displaced,displaced,0.4± 0.1,CC[C@]1(O)C[C@@H]2CN(CCc3c([nH]c4ccccc34)[C@@](C(=O)OC)(c3cc4c(cc3OC)N(C)[C@H]3[C@@](O)(C(=O)OC)[C@H](OC(C)=O)[C@]5(CC)C=CCN6CC[C@]43[C@@H]65)C2)C1 [vinblastine],>0 ^a nmol of Pi min^−1 mg^−1,–,–,–,–,–,–,–,IC50 (murine P-gp [3]): 17500 ± 11000 nM
–,–,–,–,BODIPY FL verapamil [BD-verapamil],–,–,–,–,–,–,–,–,KD [4]: negligible binding
–,–,–,–,BODIPY vinblastine [BD-vinblastine],21 ± 4 nmol of Pi min^−1 mg^−1,1700 nM and 1670 nM,156.5 ± 24.8 nmol of Pi min^−1 mg^−1,Neither BD-vinblastine or Flutax-2 stimulated ATPase activity,465 ^b nmol of Pi min^−1 mg^−1,83 ± 12,290 ± 40,42 ± 6,stimulation of ATP hydrolysis over basal ATPase activity (mouse P-gp mdr1a [1]): ~ 2 fold; increase in KD (decrease in affinity) with AMP-PNP (murine P-gp [6]; AMP-PNP vs nucleotide-free): 1.9 fold and 2 fold; increase in KD (decrease in affinity) in vanadate-trapped state (murine P-gp [6]; ATP and Vi vs nucleotide-free): 6.8 fold

Molecule,K1 (substrate concentration for half-maximal stimulation of ATPase activity) (mouse P-gp mdr1a [1]),displacement of BD-verapamil from P-gp (in words) (murine P-gp [2]),displacement of BD-vinblastine from P-gp (in words) (murine P-gp [2]),n (Hill coefficient) (murine P-gp [2]),V2 (rate of ATP hydrolysis at infinite substrate concentration) (mouse P-gp mdr1a [1]),Kd [4],V2 (rate of ATP hydrolysis at infinite substrate concentration) (mouse P-gp mdr1a [5]),stimulation of ATPase activity (in words) (mouse P-gp mdr1a [5]),V1 (maximal rate of ATP hydrolysis when there is only activation) (mouse P-gp mdr1a [5]),"Kd (murine P-gp [6]; AMP-PNP (1 mM), apparent KD) [nM]",Kd (murine P-gp [6]; [8]) [nM],Kd (murine P-gp [6]; [9]) [nM],other results
Oregon Green 488 Paclitaxel [Flutax-2],0.3 ± 0.7 ^d μM,–,–,–,18 ± 2 nmol of Pi min^−1 mg^−1,3600 nM and 3630 nM,33.2 ± 46.8 nmol of Pi min^−1 mg^−1,no stimulation,500 ^b nmol of Pi min^−1 mg^−1,530 ± 90,490 ± 80,520 ± 90,"initial transport rate (murine P-gp [7]): ~42 pmol (mg of total protein)^−1 min^−1; stimulation of ATPase activity (in words) (mouse P-gp): did not stimulate ATPase activity; stimulation of ATPase activity (in words) (mouse P-gp mdr1a [1]): does not stimulate ATPase activity; K1 (substrate concentration for half-maximal stimulation of ATPase activity) (mouse P-gp mdr1a [5]; footnote d = ambiguous, lack of ATPase stimulation): 0.2 ± 0.3 ^d μM; Kd (murine P-gp [6]; nucleotide-free, high-affinity interaction): 519 nM"

# — article PMC5701749 (Biochemistry, 2017)
